# Experimental data as given in US20100135905A1, “ASSESSMENT OF CANCER SUSCEPTIBILITY TO MOLECULAR TARGETED THERAPY BY USE OF RECOMBINANT PEPTIDES” (priority 2004, published 2010).
# Legend:
# [1] = test system: treated tumors; assay: Kinetics of Cy 7 conjugated peptide binding to treated tumors, daily imaging; assay type: in vivo, mouse; settings: Cy 7 conjugate
# Protocol: To study the kinetics of peptide binding to treated tumors, animals were imaged daily following administration of Cy 7 conjugated HVGGSSV (SEQ ID NO: 1) peptide. […] At 40 hours, the peptide was excreted by the kidneys. Tumors were located in the left hind limb.
# [2] = test system: tumor vascular endothelium; assay: Histochemistry of tumor sections after biotinylated peptide; assay type: in vivo; settings: 24 hours after administration
# Protocol: To determine whether peptide binds to endothelium or blood components, tumors were sectioned at 24 hours following administration of biotinylated HVGGSSV (SEQ ID NO: 1) peptide. Tumor sections were then stained with strepavidin conjugates for histochemistry.
# [3] = test system: GL261 tumors; assay: In vivo panning of T7 phage peptide library: phage recovered from irradiated GL261 tumors; design: species or system mice; settings: Experiment A, 3 Gy; for Phage Recovered from GL261 tumors: number of sequenced phage after six rounds; for Phage Recovered from GL261 tumors (Frequency): six rounds
# Protocol: (§1) GL261 murine glioma cells and Lewis lung carcinoma (LLC) cells were implanted into the hind limb of C57BL/6 mice (see Hallahan et al., 1995b; Hallahan et al., 1998; Hallahan & Virudachalam, 1999).
# (§2) For in vivo panning, tumors were irradiated with 3 Gy and approximately 10^10 phage (prepared as described in Example 1) were administered by tail vein injection into each of the tumor bearing mice at 4 hours following irradiation. Tumors were recovered at one hour following injection and amplified in BL21 bacteria. Amplified phage were pooled and re-administered to a tumor-bearing mouse following tumor irradiation. The phage pool was sequentially administered to a total of 6 animals. As a control, wild type phage lacking synthetic peptide inserts were identically administered to a second experimental group of animals.
# (§3) To determine the titer of phage binding in a tumor or in normal tissue, recovered phage were amplified in BL21 bacteria. Bacteria were plated and the number of plaques present was counted. To determine the total phage output per organ, the number of plaque forming units (PFU) on each plate was divided by the volume of phage plated and the weight of each organ. Normal variation was observed as a 2-fold difference in PFU. In the present Example, background binding within tumor blood vessels was approximately 10^4 phage. Phage that bound to the vasculature within irradiated tumors show enrichment in the tumor relative to other organs and enrichment in the irradiated tumor relative to the control phage without DNA insert.
# (§4) Following six rounds of in vivo panning, fifty recombinant phage peptides that bound within irradiated tumors were randomly selected for further analysis. The nucleic acid sequence encoding recombinant phage was amplified by PCR using primers set forth as SEQ ID NOs: 20-21 (available from Novagen Brand, a unit of EMD Biosciences, Inc., Madison, Wis.). An individual phage suspension was used as template. Amplified peptides were sequenced using an ABI PRISM® 377 sequencer (Applied Biosystems of Foster City, Calif., United States of America).
# [4] = test system: LLC tumors; assay: In vivo panning of T7 phage peptide library: phage recovered from irradiated LLC tumors; design: species or system mice
# Protocol: as §1, §2, §3, §4
# [5] = test system: responding tumor; assay: Near infrared imaging of Cy7-labeled phage peptide in tumor-bearing mice; assay type: in vivo, mouse
# Protocol: To determine the feasibility of imaging phage peptides binding within tumors, a Xenogen imaging system (Xenogen Corp., Alameda, Calif., United States of America) and near infrared imaging of Cy7-labeled recombinant peptides selected from phage libraries was employed. In order to examine the binding of recombinant phage peptides to responding tumors, preliminary experiments were performed to test the background binding of negative control phage in tumor-bearing animals. The […] was labeled with Cy7 and injected by tail vein into a mouse bearing tumors in both hind limbs. […] The time course of labeled negative control phage circulating throughout the animal over 6 hours was determined. At 1 hour post-injection via the tail vein, Cy7-labeled phage was distributed throughout the entire animal. At 6 hours after tail vein injection, clearance through the kidneys was observed.
# [6] = test system: B16F0 melanoma, lung carcinoma and glioma tumor models; assay: Binding of phage-encoded peptides in additional tumor models; assay type: in vivo; settings: phage encoding the peptide
# Text: The binding properties of phage encoding HVGGSSV (SEQ ID NO: 1), […] (SEQ ID NO: 2), […] (SEQ ID NO: 3), and SVGSRV (SEQ ID NO: 4) were additionally characterized in a B16F0 melanoma model.
# [7] = test system: D54 and LLC tumors; assay: Imaging of Alexfluor 750-conjugated peptide in responding and non-responding tumors; assay type: in vivo, nude mice
# Protocol: D54 and LLC tumors were implanted into both hind limbs of nude mice as described in Example 2. Tumors were grown over the course of seven to 10 days.
# At 24 hours following drug administration, mice were injected with Alexfluor 750-conjugated HVGGSSV (SEQ ID NO: 1) peptide through a jugular catheter.
# [8] = molecular target: T1, α2bβ3 receptor (Mus musculus, UniProt O54890+Q9QUM0); assay: Phage binding in irradiated tumors with blocking antibody, plaque formation; assay type: in vivo; settings: phage encoding the peptide on the capsid protein
# T1 construct: from tissue; host or cells: irradiated tumours (tumour vasculature / blood components) in living mice
# T1 sequence (Q9QUM0 32-1033): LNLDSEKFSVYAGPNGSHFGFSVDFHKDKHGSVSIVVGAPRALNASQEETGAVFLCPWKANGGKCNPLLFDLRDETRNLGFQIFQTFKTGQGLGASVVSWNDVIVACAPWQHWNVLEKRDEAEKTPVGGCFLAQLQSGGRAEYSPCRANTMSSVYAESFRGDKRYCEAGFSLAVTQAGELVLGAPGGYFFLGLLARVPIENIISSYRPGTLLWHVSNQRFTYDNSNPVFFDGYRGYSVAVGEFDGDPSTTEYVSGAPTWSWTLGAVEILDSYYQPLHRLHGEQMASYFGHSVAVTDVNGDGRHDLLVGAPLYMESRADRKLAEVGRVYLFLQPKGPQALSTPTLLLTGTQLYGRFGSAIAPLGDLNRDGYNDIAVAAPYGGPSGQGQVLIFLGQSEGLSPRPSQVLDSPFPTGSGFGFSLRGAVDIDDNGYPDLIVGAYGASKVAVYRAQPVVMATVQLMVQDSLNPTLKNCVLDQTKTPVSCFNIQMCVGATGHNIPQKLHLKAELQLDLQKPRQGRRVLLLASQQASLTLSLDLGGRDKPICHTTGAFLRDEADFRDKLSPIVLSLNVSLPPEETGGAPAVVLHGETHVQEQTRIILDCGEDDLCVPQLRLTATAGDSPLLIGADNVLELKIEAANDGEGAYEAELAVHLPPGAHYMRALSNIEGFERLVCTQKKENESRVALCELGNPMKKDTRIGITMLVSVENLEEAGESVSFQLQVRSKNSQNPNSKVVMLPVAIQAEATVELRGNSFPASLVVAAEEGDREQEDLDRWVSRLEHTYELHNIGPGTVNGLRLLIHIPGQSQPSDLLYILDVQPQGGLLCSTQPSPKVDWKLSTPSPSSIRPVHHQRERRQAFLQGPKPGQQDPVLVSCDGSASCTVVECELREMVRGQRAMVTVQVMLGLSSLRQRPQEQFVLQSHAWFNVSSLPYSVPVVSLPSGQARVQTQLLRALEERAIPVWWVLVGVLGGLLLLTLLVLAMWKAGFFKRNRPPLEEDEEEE
# T1 sequence (O54890 26-787): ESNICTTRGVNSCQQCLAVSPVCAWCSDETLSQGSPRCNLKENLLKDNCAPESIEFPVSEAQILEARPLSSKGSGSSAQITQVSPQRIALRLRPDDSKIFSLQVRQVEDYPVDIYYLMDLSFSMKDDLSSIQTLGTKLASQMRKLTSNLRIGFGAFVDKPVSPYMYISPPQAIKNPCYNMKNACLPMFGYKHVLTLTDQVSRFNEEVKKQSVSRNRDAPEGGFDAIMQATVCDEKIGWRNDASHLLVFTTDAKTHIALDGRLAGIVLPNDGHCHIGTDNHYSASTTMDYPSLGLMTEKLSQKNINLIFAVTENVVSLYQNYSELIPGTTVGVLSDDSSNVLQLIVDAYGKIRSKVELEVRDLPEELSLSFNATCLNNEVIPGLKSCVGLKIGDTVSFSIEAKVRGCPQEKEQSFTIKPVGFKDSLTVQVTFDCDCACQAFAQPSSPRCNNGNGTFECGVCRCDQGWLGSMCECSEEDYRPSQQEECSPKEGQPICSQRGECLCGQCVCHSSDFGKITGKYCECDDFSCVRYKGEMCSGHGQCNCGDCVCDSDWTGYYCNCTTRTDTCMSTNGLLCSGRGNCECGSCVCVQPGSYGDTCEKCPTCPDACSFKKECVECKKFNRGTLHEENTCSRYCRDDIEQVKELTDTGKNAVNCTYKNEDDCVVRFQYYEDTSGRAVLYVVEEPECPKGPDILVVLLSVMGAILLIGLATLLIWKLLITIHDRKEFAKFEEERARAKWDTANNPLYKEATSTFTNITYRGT
# Protocol: An anti-α2bβ3 monoclonal antibody was administered by tail vein to determine whether this receptor is required for recombinant phage binding in irradiated tumors. Phage encoding […] (SEQ ID NO: 2) on the capsid protein were injected immediately after blocking antibody or control antibody. Phage were recovered from the tumor and controls organs and quantified by plaque formation. Radiation induced a 4-fold increase in phage binding in tumor. […] Thus, the tumor binding activity of targeting peptide […] (SEQ ID NO: 2) is dependent on its interaction with the α2bβ3 receptor.
# [9] = test system: LLC tumors; assay: 131I-labeled peptide binding in hind limb LLC tumors, well counts; assay type: in vivo, mice
# Protocol: Recombinant peptide and ligand binding to the α2bβ3 integrin is dose dependent, with a threshold dose of 6 Gy and maximal binding at 10 Gy. This is the dose range for induction of apoptosis within tumor endothelium (Garcia-Barros & Kolesnick, 2003). […] To determine whether recombinant peptides bind within tumors following this combined therapy, the recombinant peptide […] (SEQ ID NO: 2) was employed. […] Tumors were resected and counts per minute (CPM) were measured by well counts.
# [10] = Experiment A, number of sequenced phage after six rounds, 3 Gy
substance,measurement,setting,value
HVGGSSV (Peptide that binds to LLC and/or GL261 tumors) [peptide isolated by in vivo panning of a phage library],Time at which peptide was excreted by the kidneys,[1],40 h
same,Time over which peptide circulated throughout the mouse,[1],28 h
same,Time over which peptide remained bound to the tumor,[1],162 h
same,Binding within the intravascular blood components,[2],minimal or no binding
same,Site of peptide binding in tumor sections,[2]; streptavidin histochemistry,bound primarily to tumor vascular endothelium
same,Phage Recovered from GL261 tumors,[3],12
same,Phage Recovered from GL261 tumors (Frequency),[3],(48%)
same,Phage Recovered from LLC tumors,[4]; [10],7
same,Phage Recovered from LLC tumors (Frequency),"[4]; Experiment A, six rounds, 3 Gy",(28%)
same,Binding of Cy7-labeled phage peptide in treated tumor,[5]; SU11248 and 3 Gy to right hind limb tumor,bound within the responding tumor
same,Binding of Cy7-labeled phage peptide in tumors,"[5]; mouse treated with SU11248 40 mg/kg, one hind limb tumor 3 Gy 24 hours prior to imaging",observed in the responding tumor but not an non-responding tumor
same,Phage binding in negative control tumor,"[5]; no SU11248 or radiation, 24 hours after tail vein injection",minimal phage binding
same,Tumor models within which the phage-encoded peptide bound,[6],"bound within the melanoma, lung carcinoma, and glioma tumor models"
same,Labeled peptide binding in tumor,"[7]; Alexfluor 750 conjugate, tumor treated with SU11248 and radiation, 24 hours after drug",Intense peptide binding
same,Uptake in tumors treated with SU11248 alone compared to untreated tumors,[7]; responding versus non-responding tumors,differentially bound to tumors that responded to SU11248 therapy
same,Labeled peptide binding in tumor,"[7]; tumors not responding to therapy, SU11248 alone",no increase in peptide binding
SLRGDGSSV (Peptide that binds to LLC and/or GL261 tumors) [peptide isolated by in vivo panning],Phage Recovered from GL261 tumors,[3],2
same,Phage Recovered from GL261 tumors (Frequency),[3],(8%)
same,Phage Recovered from LLC tumors,[4]; [10],7
same,Phage Recovered from LLC tumors (Frequency),"[4]; Experiment A, six rounds, 3 Gy",(28%)
same,Phage Recovered from LLC tumors (Frequency),[4]; Experiment B,(14%)
same,Phage Recovered from LLC tumors,"[4]; Experiment B, number of sequenced phage",2
same,Tumor models within which the phage-encoded peptide bound,[6],"bound within the melanoma, lung carcinoma, and glioma tumor models"
same,Radiation-induced increase in phage binding in tumor,[8],4 fold
same,Radiolabeled peptide bound in tumors,[9]; tumors treated with 2 Gy alone,10%
same,Radiolabeled peptide bound in tumors,[9]; tumors treated with 10 Gy,89%
same,Radiolabeled peptide bound in tumors,[9]; tumors treated with SU11248 alone,9%
same,Radiolabeled peptide bound in tumors,[9]; tumors treated with SU11248 and 2 Gy,91%
same,Radiolabeled peptide bound in tumors,[9]; untreated control tumors (tumors about 8% of body weight),8%
